Consider 15 compounds from patent US20240360178A1, “MACROCYCLIC IMMUNOMODULATORS” (Bristol-Myers Squibb Company, priority 2021, published 2024).

Positions of bridges follow the written chain, without caps; N, C: chain ends. Non-standard residues stand in square brackets, D forms with d. Residues, ends and D or L forms follow the SMILES beside them. ξ: configuration not given here. *: point of attachment. Phe(4-COOH) = N[C@@H](Cc1ccc(C(=O)O)cc1)C(=O)O; Bip = N[C@@H](Cc1ccc(-c2ccccc2)cc1)C(=O)O; Phe(4-CN) = N#Cc1ccc(C[C@H](N)C(=O)O)cc1; Phe(3-Me) = Cc1cccc(C[C@H](N)C(=O)O)c1; Ala(cPr) = N[C@@H](CC1CC1)C(=O)O; NMeF = CN[C@@H](Cc1ccccc1)C(=O)O; Cit = NC(=O)NCCC[C@H](N)C(=O)O; ξR = N=C(N)NCCCC(N)C(=O)O; Carboxymethyl = O=C(O)C*; NMeA = CN[C@@H](C)C(=O)O; Orn = NCCC[C@H](N)C(=O)O; Dab = NCC[C@H](N)C(=O)O; dAze = O=C(O)[C@H]1CCN1; Sar = CNCC(=O)O

For this assay, the target named is T1, human PD-1 (Jurkat-PD-1 cells) / PE-labeled human PD-L1-Ig (Homo sapiens, UniProt Q15116).
T1 construct: expressed in transfected cells; host or cells: Jurkat cell line over-expressing human PD-1
T1 sequence (Q15116 25-288): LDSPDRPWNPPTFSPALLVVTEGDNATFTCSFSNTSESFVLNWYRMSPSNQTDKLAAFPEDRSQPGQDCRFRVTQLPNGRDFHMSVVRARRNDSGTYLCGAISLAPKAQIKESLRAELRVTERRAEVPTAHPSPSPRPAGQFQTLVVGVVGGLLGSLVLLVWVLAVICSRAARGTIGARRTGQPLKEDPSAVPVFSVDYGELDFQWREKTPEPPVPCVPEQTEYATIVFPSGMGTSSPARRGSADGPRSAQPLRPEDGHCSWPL
The assay is described as follows: Jurkat-PD-1 Cell Binding High-Content Screening Assay (CBA); Jurkat hPD1-PDL1 assay. The note with it: Jurkat cell line over-expressing human PD-1; PE-labeled PD-L1-Ig 20 nM final; compound incubated 2 hours at 37° C.; read-out: Jurkat HPD1-PDL1 IC50. The method in brief: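 Compound was added to Jurkat-PD-1 cells in DMEM plus 10% fetal calf serum and incubated 2 hours at 37° C. Binding of phycoerythrin-conjugated PD-L1-Ig (20 nM final) to the cells was imaged.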

Consider `CC(C)C[C@@H]1NC(=O)[C@H](C)NC(=O)[C@H]2CCCN2C(=O)[C@H](C)N(C)C(=O)[C@H](CCC(=O)O)NC(=O)[C@H](Cc2ccc(-c3ccccc3)cc2)NC(=O)[C@H](CC(C)C)NC(=O)[C@H](Cc2c[nH]c3ccccc23)NC(=O)[C@H](CC(=O)O)NC(=O)[C@H](Cc2ccc(O)cc2)NC(=O)[C@H](Cc2ccccc2)NC(=O)CSC[C@@H](C(=O)N[C@@H](C)C(N)=O)NC(=O)[C@H](CO)NC(=O)[C@H](C(C)C)NC1=O` [Example 1028] ({CH2CO}-FYDWL[Bip]E[NMeA][dP]ALVSCA-NH2; thioether N-14), for which the IC50 worked out at 50 nM.

As for `CC(C)C[C@@H]1NC(=O)[C@H](CCN)NC(=O)[C@H](Cc2ccccc2)N(C)C(=O)[C@H](C)N(C)C(=O)[C@H](CCCN)NC(=O)[C@H](Cc2ccc(-c3ccccc3)cc2)NC(=O)[C@H](C(C)C)NC(=O)[C@H](Cc2c[nH]c3ccccc23)NC(=O)[C@H](CC(=O)O)NC(=O)[C@H](Cc2ccc(O)cc2)NC(=O)[C@H](Cc2ccccc2)NC(=O)CSC[C@@H](C(=O)N[C@@H](C)C(N)=O)NC(=O)[C@H]([C@@H](C)O)NC(=O)[C@H](C(C)C)NC1=O` [Example 1341] ({CH2CO}-FYDWV[Bip][Orn][NMeA][NMeF][Dab]LVTCA-NH2; thioether N-14), the IC50 was determined as 200 nM.

For `CC(C)C[C@@H]1NC(=O)[C@H](Cc2c[nH]c3ccccc23)NC(=O)[C@H](CC(=O)O)NC(=O)[C@H](Cc2ccc(O)cc2)NC(=O)[C@H](Cc2ccccc2)NC(=O)CSC[C@@H](C(=O)N[C@@H](CCCNC(=N)N)C(N)=O)NC(=O)[C@H](CO)NC(=O)[C@H](C(C)C)NC(=O)[C@H](CC(C)C)NC(=O)[C@H](CC(N)=O)NC(=O)CN(C)C(=O)[C@H](C)N(C)C(=O)[C@H](C(C)C)NC(=O)[C@H](Cc2ccc(-c3ccccc3)cc2)NC1=O` [Example 1254] ({CH2CO}-FYDWL[Bip]V[NMeA][Sar]NLVSCR-NH2; thioether N-14), the IC50 stood at 850 nM.

In the case of `CC(C)C[C@@H]1NC(=O)[C@H](CCCNC(=N)N)NC(=O)[C@H](Cc2ccccc2)N(C)C(=O)[C@H](C)N(C)C(=O)[C@H](CCCNC(N)=O)NC(=O)[C@H](Cc2ccc(-c3ccccc3)cc2)NC(=O)[C@H](C(C)C)NC(=O)[C@H](Cc2c[nH]c3ccccc23)NC(=O)[C@H](CC(=O)O)NC(=O)[C@H](Cc2ccc(O)cc2)NC(=O)[C@H](CC(N)=O)NC(=O)CSC[C@@H](C(=O)N[C@@H](C)C(N)=O)NC(=O)[C@H](CO)NC(=O)[C@H](C(C)C)NC1=O` [Example 1377] ({CH2CO}-NYDWV[Bip][Cit][NMeA][NMeF]RLVSCA-NH2; thioether N-14), the IC50 amounted to 40 nM.

As to `CC(C)C[C@@H]1NC(=O)[C@H](Cc2c[nH]c3ccccc23)NC(=O)[C@H](CC(=O)O)NC(=O)[C@H](Cc2ccc(O)cc2)NC(=O)[C@H](Cc2ccccc2)NC(=O)CSC[C@@H](C(=O)N[C@@H](C)C(N)=O)NC(=O)[C@H](CO)NC(=O)[C@H](C(C)C)NC(=O)[C@H](CC(C)C)NC(=O)[C@H](CC(N)=O)NC(=O)[C@H]2CCN2C(=O)[C@H](C)N(C)C(=O)[C@H](C(C)C)NC(=O)[C@H](Cc2ccc(-c3ccccc3)cc2)NC1=O` [Example 1021] ({CH2CO}-FYDWL[Bip]V[NMeA][dAze]NLVSCA-NH2; thioether N-14), the IC50 came to 40 nM.

Turning to `CC(C)C[C@@H]1NC(=O)[C@H](CCCNC(=N)N)NC(=O)[C@H](Cc2ccccc2)N(C)C(=O)[C@H](C)N(C)C(=O)[C@H](CCC(=O)O)NC(=O)[C@H](Cc2ccc(-c3ccccc3)cc2)NC(=O)[C@H](C(C)C)NC(=O)[C@H](Cc2c[nH]c3ccccc23)NC(=O)[C@H](CC(=O)O)NC(=O)[C@H](Cc2ccc(O)cc2)NC(=O)[C@H](Cc2ccccc2)NC(=O)CSC[C@@H](C(=O)N[C@@H](C)C(N)=O)NC(=O)[C@H]([C@@H](C)O)NC(=O)[C@H](C(C)C)NC1=O` [Example 1344] ({CH2CO}-FYDWV[Bip]E[NMeA][NMeF]RLVTCA-NH2; thioether N-14), the IC50 came out at 220 nM.

Take `CC(C)C[C@@H]1NC(=O)C(CCCNC(=N)N)NC(=O)[C@H](Cc2ccccc2)N(C)C(=O)[C@H](C)N(C)C(=O)[C@H](CCCNC(=N)N)NC(=O)[C@H](Cc2ccc(-c3ccccc3)cc2)NC(=O)[C@H](C(C)C)NC(=O)[C@H](Cc2c[nH]c3ccccc23)NC(=O)[C@H](CC(=O)O)NC(=O)[C@H](Cc2ccc(O)cc2)NC(=O)[C@H](Cc2ccccc2)NC(=O)CSC[C@@H](C(=O)NCC(N)=O)NC(=O)[C@H](CO)NC(=O)[C@H](CCC(=O)O)NC1=O` (stereo partly drawn) [Example 1218] ({CH2CO}-FYDWV[Bip]R[NMeA][NMeF][ξR]LESCG-NH2; thioether N-14): the IC50 came out at 230 nM.

As for `CC(C)C[C@@H]1NC(=O)[C@H](CCCNC(=N)N)NC(=O)[C@H](Cc2ccccc2)N(C)C(=O)[C@H](C)N(C)C(=O)[C@H](CCCNC(=N)N)NC(=O)[C@H](Cc2ccc(-c3ccccc3)cc2)NC(=O)[C@H](C(C)C)NC(=O)[C@H](Cc2c[nH]c3ccccc23)NC(=O)[C@H](CC(=O)O)NC(=O)[C@H](Cc2ccc(O)cc2)NC(=O)[C@H](Cc2ccc(OCC(=O)O)cc2)NC(=O)CSC[C@@H](C(=O)NCC(N)=O)NC(=O)[C@H](CO)NC(=O)[C@H](C(C)C)NC1=O` [Example 1246] ({CH2CO}-Y(Carboxymethyl)YDWV[Bip]R[NMeA][NMeF]RLVSCG-NH2; thioether N-14), the IC50 was 250 nM.

Consider `Cc1cccc(C[C@@H]2NC(=O)[C@H](CC(=O)O)NC(=O)[C@H](Cc3ccc(C(=O)O)cc3)NC(=O)[C@H](Cc3ccc(OCC(=O)O)cc3)NC(=O)CSC[C@@H](C(=O)N[C@@H](C)C(N)=O)NC(=O)[C@H](CO)NC(=O)[C@H](C(C)C)NC(=O)[C@H](CC(C)C)NC(=O)[C@H](CC(N)=O)NC(=O)[C@H]3CCCN3C(=O)[C@H](C)N(C)C(=O)[C@H](C(C)C)NC(=O)[C@H](Cc3ccc(-c4ccccc4)cc3)NC(=O)[C@H](CC(C)C)NC2=O)c1` [Example 1436] ({CH2CO}-Y(Carboxymethyl)[Phe(4-COOH)]D[Phe(3-Me)]L[Bip]V[NMeA][dP]NLVSCA-NH2; thioether N-14), for which the IC50 stood at 40 nM.

In the case of `CC(C)C[C@@H]1NC(=O)[C@H](CCCNC(=N)N)NC(=O)[C@H](Cc2ccccc2)N(C)C(=O)[C@H](C)N(C)C(=O)[C@H](C(C)C)NC(=O)[C@H](Cc2ccc(-c3ccccc3)cc2)NC(=O)[C@H](C(C)C)NC(=O)[C@H](Cc2c[nH]c3ccccc23)NC(=O)[C@H](CC(=O)O)NC(=O)[C@H](Cc2ccc(O)cc2)NC(=O)[C@H](Cc2ccccc2)NC(=O)CSC[C@@H](C(=O)NCC(N)=O)NC(=O)[C@H](CO)NC(=O)[C@H](C(C)C)NC1=O` [Example 1206] ({CH2CO}-FYDWV[Bip]V[NMeA][NMeF]RLVSCG-NH2; thioether N-14), the IC50 came out at 450 nM.

Turning to `CC(C)C[C@@H]1NC(=O)[C@H](Cc2c[nH]c3ccccc23)NC(=O)[C@H](CC(=O)O)NC(=O)[C@H](Cc2ccc(O)cc2)NC(=O)[C@H](Cc2ccccc2)NC(=O)CSC[C@@H](C(=O)N[C@@H](C)C(N)=O)NC(=O)[C@H](CO)NC(=O)[C@H](C(C)C)NC(=O)[C@H](CC(C)C)NC(=O)[C@H](CCN)NC(=O)[C@H]2CCCN2C(=O)[C@H](CCCN)NC(=O)[C@H](C(C)C)NC(=O)[C@H](Cc2ccc(-c3ccccc3)cc2)NC1=O` [Example 1421] ({CH2CO}-FYDWL[Bip]V[Orn][dP][Dab]LVSCA-NH2; thioether N-14), the IC50 was found to be 60 nM.

As to `CC(C)C[C@@H]1NC(=O)[C@H](Cc2c[nH]c3ccccc23)NC(=O)[C@H](CC(=O)O)NC(=O)[C@H](Cc2ccc(O)cc2)NC(=O)[C@H](Cc2ccc(C#N)cc2)NC(=O)CSC[C@@H](C(=O)NCC(N)=O)NC(=O)[C@H](CO)NC(=O)[C@H](C(C)C)NC(=O)[C@H](CC(C)C)NC(=O)[C@H](CC(N)=O)NC(=O)CN(C)C(=O)[C@H](C)N(C)C(=O)[C@H](C(C)C)NC(=O)[C@H](Cc2ccc(-c3ccccc3)cc2)NC1=O` [Example 1128] ({CH2CO}-[Phe(4-CN)]YDWL[Bip]V[NMeA][Sar]NLVSCG-NH2; thioether N-14), the IC50 is 490 nM.

Regarding `CC(C)C[C@@H]1NC(=O)[C@H](Cc2c[nH]c3ccccc23)NC(=O)[C@H](CC(=O)O)NC(=O)[C@H](Cc2ccc(O)cc2)NC(=O)[C@H](Cc2ccccc2)NC(=O)CSC[C@@H](C(=O)N[C@@H](C)C(N)=O)NC(=O)[C@H](CO)NC(=O)[C@H](C(C)C)NC(=O)[C@H](CC2CC2)NC(=O)[C@H](CC(N)=O)NC(=O)CN(C)C(=O)[C@H](C)N(C)C(=O)[C@H](C(C)C)NC(=O)[C@H](Cc2ccc(-c3ccccc3)cc2)NC1=O` [Example 1144] ({CH2CO}-FYDWL[Bip]V[NMeA][Sar]N[Ala(cPr)]VSCA-NH2; thioether N-14), the concentration for half-maximal inhibition (IC50) was determined as 630 nM.

`CC(C)C[C@@H]1NC(=O)[C@H](CCCNC(=N)N)NC(=O)[C@H](Cc2ccccc2)N(C)C(=O)[C@H](CCCNC(N)=O)NC(=O)[C@H](CCCNC(=N)N)NC(=O)[C@H](Cc2ccc(-c3ccccc3)cc2)NC(=O)[C@H](C(C)C)NC(=O)[C@H](Cc2c[nH]c3ccccc23)NC(=O)[C@H](CC(=O)O)NC(=O)[C@H](Cc2ccc(O)cc2)NC(=O)[C@H](Cc2ccccc2)NC(=O)CSC[C@@H](C(=O)NCC(N)=O)NC(=O)[C@H](CO)NC(=O)[C@H](C(C)C)NC1=O` [Example 1276] ({CH2CO}-FYDWV[Bip]R[Cit][NMeF]RLVSCG-NH2; thioether N-14): the IC50 is 840 nM.

Consider `CC(C)C[C@@H]1NC(=O)[C@H](CCCNC(=N)N)NC(=O)[C@H](Cc2ccccc2)N(C)C(=O)[C@H](C)N(C)C(=O)[C@H](CCCNC(=N)N)NC(=O)[C@H](Cc2ccc(-c3ccccc3)cc2)NC(=O)[C@H](C(C)C)NC(=O)[C@H](Cc2c[nH]c3ccccc23)NC(=O)[C@H](CC(=O)O)NC(=O)[C@H](Cc2ccc(O)cc2)NC(=O)[C@H](Cc2ccccc2)NC(=O)CSC[C@@H](C(=O)NCC(N)=O)NC(=O)[C@H](CCN)NC(=O)[C@H](C(C)C)NC1=O` [Example 1332] ({CH2CO}-FYDWV[Bip]R[NMeA][NMeF]RLV[Dab]CG-NH2; thioether N-14), for which the half-inhibitory concentration (IC50) was found to be 790 nM.

What is called IC50 is the midpoint of a concentration-inhibition curve.
